# From US7666619B2, “Compounds and methods for regulating bacterial growth and pathogenesis” (Princeton University, priority 2000, dated 2010)
# Entries after “also recorded” stand apart in the source; their conditions may differ. Read-outs that look alike come from different tables or passages of the source.
# What was measured:
# [1] = system: V. harveyi reporter strain BB170 (Sensor 1−, Sensor 2+); assay: V. harveyi luminescence assay, test strain BB170 (AI-2 bioassay); type: cell-based, Vibrio harveyi; conditions: for signaling activity (induction of luminescence): control experiments, reporter strain BB170
# Procedure: FIG. 16 panels C and D show the effect of the same compounds on control strain JAF78. Strain BB170 synthesizes AI-2 starting at 4.5 hours into the assay. Light produced at the start of the assays is from AI-2 carried over from cells diluted from stationary phase. Strain JAF78 is a mutant strain in which light production is “locked on” and is unaffected by the presence or absence of autoinducer. Increase in light over the time course reflects increase in cell population density.
# Density-dependent Bioluminescence Assay. […] The cell density was measured by diluting the same aliquots of cells used for measuring luminescence, spreading the dilutions onto solid LM medium, incubating the plates overnight at 30° C., and counting the resulting colonies the following day. Relative Light Units are (counts min^−1 ml^−1×10^3)/(colony forming units ml^−1). Cell-free culture supernatants from V. harveyi or S. typhimurium strains were added to a final concentration of 10% (v/v) at the time of the first measurement. In control experiments, 10% (v/v) of AB medium, LB medium or LB medium containing 0.5% glucose was added instead of cell-free culture fluids.
# Assay for Production of Signaling Molecules. Cell-free culture fluids from E. coli, S. typhimurium and V. harveyi strains were tested for the presence of signaling substances that could induce luminescence in the V. harveyi reporter strain BB170 or BB886. In the assays, 10 μl of cell-free culture fluids from E. coli AB1157, E. coli DH5α, and S. typhimurium LT2 strains grown and harvested as described above were added to 96-well microtiter dishes. The V. harveyi reporter strain BB170 or BB886 was grown for 16 h at 30° C. with aeration in AB medium, diluted 1:5000 into fresh AB medium, and 90 μl of the diluted cells were added to the wells containing the E. coli and S. typhimurium cell-free culture fluids. Positive control wells contained 10 μl of cell-free culture fluid from strain V. harveyi BB152 (Autoinducer-1^−, Autoinducer-2^+) or V. harveyi BB120 (Autoinducer-1^+, Autoinducer-2^+). Negative control wells contained 10 μl of sterile growth medium. The microtiter dishes were shaken in a rotary shaker at 175 rpm at 30° C.
# Bioluminescence Assay. […] Cell-free culture fluids from V. harveyi, E. coli, or S. typhimurium strains to be tested for AI-2 activity were prepared as described above, and assayed at 10% (v/v). AI-2 activity is reported as the fold-induction of the reporter strain over background, or as the percent of the activity obtained from V. harveyi BB120 (wild type) cell-free culture fluid.
# [2] = system: Staphylococcus aureus ATCC 25923; assay: Antibiotic susceptibility assay (NCCLS broth microdilution); type: cell-based; conditions: with 2-ethyl-4-hydroxy-5-methyl-3(2H)-furanone at 25 μg/ml
# Procedure: (§1) Antimicrobial susceptibility testing was conducted according to the National Committee for Clinical Laboratory Standards (NCCLS) reference method “Broth Dilution Procedure (Microdilution)” published January 1977 (UPDATE VERSION). The method yields a minimum inhibitory dose (MIC) required for complete inhibition of bacterial growth. MICs were determined using a dilution series of antibiotic, in which all of the wells contained a constant concentration of the inhibitor compound was maintained. In addition, before the instant susceptibility tests were performed, the inhibitor compounds were tested in the appropriate inhibitor screens (See, for example, FIG. 32 for the AI-2 inhibitor 2-ethyl-4-hydroxy-5-methyl-3(2H)-furanone). […] Experiments were conducted in 96 well microtiter plates using a final volume of 0.1 ml/well. Assays were conducted using either Mueller-Hinton broth, Todd-Hewitt broth, or Nutrient Broth (Difco). The bacterial innoculum was prepared from a log phase overnight culture of Streptococcus pyogenes ATCC 19615 or Staphylococcus aureus ATCC 25923. Turbidity of the cultures was adjusted with saline to 0.05 McFarland standard (10^7 CFU/ml), and 5 microliters of this innoculum was added to each well. The inhibitor compounds were prepared by dissolving a stock solution in water. Working stocks of quorum inhibitors compounds were made by diluting the stock solutions with bacterial broth. Sodium salts of the antibiotics were used in these experiments. A stock solution (10 mg/ml) was prepared as stipulated by the manufacturer by dissolving a weighed amount of antibiotic in water or DMSO. All antibiotics were added in two-fold serial dilutions to a series of wells to yield final concentrations ranging from 100 μg/ml to 0.1 μg/ml. The single exception was sulfisoxazole where the range of final doses ranged from 300 μg/ml to 2.5 μg/ml. Bacterial broth was used as the diluent. The range of antibiotic concentrations used were chosen to be at and below the MIC for the antibiotic alone. Cultures were sealed and incubated for 20 hours at 37° C. MIC values were determined by spectrophotometric measurements of absorbance at 600 nm. […] Fold-changes in MIC concentration were determined by comparing the MIC for antibiotic and quorum inhibitor compounds with the MIC measured using antibiotic alone.
# [3] = system: V. harveyi strains MM32, BB120, BB170; assay: Microtiter crystal violet biofilm formation assay; type: cell-based, Vibrio harveyi; conditions: null mutant (AI-1−/AI-2−) V. harveyi
# Procedure: Biofilm formation was measured using a microtiter-based assay. Free-swimming (planktonic) bacteria were cultured in AB or LB media supplemented with glucose in 96 well microtiter dishes. Biofilms typically formed along the walls of the wells at the interface of the liquid and air phase. At the end of the incubation, aliquots of a crystal violet solution (stock 0.1%) were added to the wells to stain both the adherent and the non-adherent cells. The wells were then washed with deionized water to remove non-adherent cells, and the bound crystal violet solubilized with 200 microliters of water. Absorbance reading at 600 nm (A600) were used to quantitate the amount of crystal violet dye that had adhered to the biofilms. When indicated, synthetic AI-2 was added to the wells at the beginning of the cultures.
# Various amounts of synthetic AI-2 were added to the initial free-swimming bacterial cultures in LB media supplemented with glucose, and biofilm formation measured at the end of the incubation.
# [4] = system: sensor-1+, sensor-2− mutant (BB886); assay: Microtiter luminescence assay with AI-1 and strain BB886; type: cell-based, Vibrio harveyi; conditions: non self-stimulating strain BB886
# [5] = system: Streptococcus pyogenes ATCC 19615; assay: Antibiotic susceptibility assay (NCCLS broth microdilution); type: cell-based; conditions: for MIC: Streptococcus pyogenes, ATCC19615
# Procedure: as §1
# [6] = system: MM32 indicator strain (LuxS−, LuxN−) of V. harveyi; assay: MM32 bioluminescence assay; type: cell-based, Vibrio harveyi; conditions: autoinducer-2 25 μg/ml, QXP-048 25 μg/ml
# Procedure: The MM32 indicator strain (LuxS−, LuxN−) of V. harveyi was incubated with various doses of AI-2 and the bioluminescence signal measured at various time points during a 6-hour incubation.
# Exogenous synthetic autoinducer-2 was added at the outset of the assay at a final concentration of 25 μg/ml. QXP-048 was added at the outset of the assay at a final concentration of 25 μg/ml. […] Exogeneous synthetic autoinducer-2 was added at the outset of the assay to a final concentration of 25 μg/ml. QXP-048 was added at the outset of the assay at a final concentration of 25 μg/ml.
# The invention provides a luxN− and luxS− strain of V. harveyi, designated MM32, for identifying inhibitors of the quorum-sensing pathway. […] Further, since MM32 cannot produce AI-2, addition of exogenous AI-2 or its analogs allows rapid identification of inhibitors of AI-2.
# [7] = system: CAMP expression by S. pyogenes 19615; assay: CAMP assay (S. aureus 25923 streak, S. pyogenes 19615 streaks, sheep blood agar); type: cell-based, Streptococcus pyogenes
# Procedure: The horizontal streak is S. aureus 25923 and the vertical streaks are S. pyogenes 19615. Filter disks containing either DMSO no drug control or compound QXP031 were applied to plates and incubated anaerobically overnight at 37° C.
# Many streptococci produce a diffusible extracellular protein (CAMP) that acts synergistically with staphylococcal beta lysin to lyse erythrocytes on trypticase soy agar plates containing sheep blood. Hemolysis of erythrocytes is an important component of the virulence response in many pathogenic bacteria. A single straight streak of a beta lysin producing S. aureus strain is made. Steptococci to be tested are streaked perpendicular to the S. aureus streak.
# [8] = system: S. pyogenes 19615 proteolytic activity; assay: Skim milk plate proteinase assay; type: cell-based, Streptococcus pyogenes; conditions: filter disk, anaerobic overnight 37° C.
# Procedure: Skim milk containing plates were overlaid with top agar containing S. pyogenes 19615. Filter disks containing either DMSO no compound control or compound QXP031 were applied to plates and incubated anaerobically overnight at 37° C.
# Proteinase activity is an important component of the virulence response in many pathogenic bacteria. Skim milk containing agar plates can be used to score for proteinase activity in a variety of bacteria. Proteolytic activity is scored as a clearing zone surrounding a test inoculum. The clearing zone is the result of the proteolytic breakdown of the milk proteins suspended in the agar plates. Regions where milk protein is not broken retain a milky opaque appearance.
# [9] = system: AI-2 mediated luciferase expression in V. harveyi; assay: V. harveyi bioassay, tester and control strains, bioluminescence intensity; type: cell-based, Vibrio harveyi
# Procedure: The results are normalized to cell count and control strain.
# The inhibition of an AI-2 mediated response was further measured in the V. harveyi bioassay. Compound QXP031 was tested against V. harveyi tester and control strains. […] The results are normalized to cell count and any minimal effects seen in the control strain. The fold difference in bioluminescence intensity at the different drug concentrations versus no drug control is indicated above the appropriate bars in FIG. 21.
# AI-2 = assay: Inhibition of AI-2 initiated activation of a biochemical pathway
# Excerpt: It is an object of the invention to provide compounds and methods for regulating the activity of autoinducer-2 receptors such as LuxP or LuxQ. Compounds of the invention include those that interact with LuxP or LuxQ. Specifically, the invention provides a method for the regulation of LuxP or LuxQ protein resulting in the regulation of bacterial cell growth or the regulation of bacterial pathogenicity by regulating the expression of a factor associated with bacterial virulence. The method of the invention envisions contacting LuxP or LuxQ with pentenomycin, or derivatives thereof, such that LuxP or LuxQ activity is regulated. Pentenomycin has previously been identified as having antibiotic activity. […] The chemical structure of pentenomycin, and derivatives thereof (see below), is/are similar to that of the structure of autoinducer-2 as identified in the present study.
# [10] = system: Streptococcus pyogenes ATCC 19615; assay: Cell growth monitored by absorbance at 600 nm; type: cell-based; conditions: 2.4 μg/ml or 2.5 mg/ml
# Procedure: Streptococcus pyogenes ATCC 19615 was grown in the presence of either 2.4 μg/ml or 2.5 mg/ml of compound QXP-035. Cell growth was monitored by taking periodic measurements of absorbance at 600 nm.
smiles,measurement,setting,value
CC(=O)O [acetate],signaling activity (induction of luminescence),[1],lacked activity
CC1(C)S[C@@H]2[C@H](NC(=O)[C@H](N)c3ccccc3)C(=O)N2[C@H]1C(=O)O [ampicillin],MIC of antibiotic combined with quorum inhibitor,[2],0.4 mg/L
"C[C@@H](O)CC(=O)N[C@H]1CCOC1=O [AI-1, N-(3-hydroxybutanoyl)-L-homoserine lactone, reference compound]",biofilm production after addition to the medium,[3],allows (AI-1−/AI-2−) V. harveyi to produce biofilm
same,lowest concentration to which the assay was sensitive,[4],100 nM
OC[C@H]1OC(O)[C@H](O)[C@@H](O)[C@@H]1O (stereo partly shown) [Glucose],signaling activity (induction of luminescence),[1],lacked activity
CN[C@H](CC(C)C)C(=O)N[C@H]1C(=O)N[C@@H](CC(N)=O)C(=O)N[C@H]2C(=O)N[C@H]3C(=O)N[C@H](C(=O)N[C@H](C(=O)O)c4cc(O)cc(O)c4-c4cc3ccc4O)[C@H](O)c3ccc(c(Cl)c3)Oc3cc2cc(c3O[C@@H]2O[C@H](CO)[C@@H](O)[C@H](O)[C@H]2O[C@H]2C[C@](C)(N)[C@H](O)[C@H](C)O2)Oc2ccc(cc2Cl)[C@H]1O [vancomycin],synergy in combination with 2-ethyl-4-hydroxy-5-methyl-3(2H)-furanone,[5],marked synergies
same,MIC,[5],~100 mg/L
same,MIC of antibiotic combined with quorum inhibitor,"[5]; with 2-ethyl-4-hydroxy-5-methyl-3(2H)-furanone at 5 μg/ml, compared with vancomycin alone",approximately the same MIC
same,MIC of antibiotic combined with quorum inhibitor,[5]; with 2-ethyl-4-hydroxy-5-methyl-3(2H)-furanone at 12.5 μg/ml,approximately 1.6 micrograms/milliliter
same,MIC of antibiotic combined with quorum inhibitor,"[5]; with 2-ethyl-4-hydroxy-5-methyl-3(2H)-furanone at 50 μg/ml, compared with 12.5 μg/ml",the same MIC
O=C(O)CCC(=O)C(=O)O [-ketoglutarate],signaling activity (induction of luminescence),[1],lacked activity
"COC1(c2ccccc2)OC=C(c2ccccc2)C1=O (stereo not shown) [QXP-048, 2-methoxy-2,4-diphenyl-3(2H)furanone]",effect on signal from exogenous synthetic autoinducer-2,[6],inhibitory capability
Cc1noc(NS(=O)(=O)c2ccc(N)cc2)c1C [sulfisoxazole],synergy in combination with 2-ethyl-4-hydroxy-5-methyl-3(2H)-furanone,[5],marked synergies
same,MIC,"[5]; compound alone, read-out: MIC",~300 mg/L
same,MIC of antibiotic combined with quorum inhibitor,[5]; with 2-ethyl-4-hydroxy-5-methyl-3(2H)-furanone at 100 micrograms per milliliter,approximately 100 μg/ml
"CC(=O)O[C@H]1C=CC(=O)C1 [QXP031, (R)-4-acetoxy-cyclopent-2-eneone]",CAMP score,[7],negative CAMP score
same,hemolysis in CAMP assay,"[7]; filter disk, anaerobic overnight 37° C.",complete inhibition of hemolysis
same,proteolysis of milk protein,[8],inhibition of S. pyogenes proteolytic activity; also recorded: proteolysis was inhibited
same,effect on AI-2 mediated luciferase expression,[9]; at the concentrations indicated in FIG. 21,specifically inhibited
same,specific decrease in bioluminescence as a result of AI-2 inhibition,"[9]; various concentrations, normalized to cell count and control strain",up to 15000 fold
O=C1C=C[C@H](O)[C@@]1(O)CO [pentenomycin],effect on AI-2 initiated activation of a biochemical pathway,AI-2,acts as an inhibitor
N[C@H]1CCOC1=O [homoserine lactone],signaling activity (induction of luminescence),[1],lacked activity
"CCC1OC(C)=C(O)C1=O (stereo not shown) [QXP-035, 2-ethyl-4-hydroxy-5-methyl-3(2H)-furanone]",effect on cell growth,[10],did not inhibit cell growth
same,MIC,"[5]; compound alone, read-out: MIC",> 100 mg/L
same,effect on AI-2-dependent bioluminescence,"[1]; BB170, various amounts, monitored over time",inhibition of bioluminescence
